Source: patent publication US20220213092A1, “BICYCLIC PYRAZOLE BRUTON'S TYROSINE KINASE INHIBITORS” (AbbVie Inc., priority 2020, published 2022)

Legend:
BTK = target: T1, BTK (Homo sapiens, UniProt Q06187); assay: BTK kinase electrophoretic mobility shift assay (MSA); format: biochemical; conditions: 50 μM ATP, 0.5 nM BTK enzyme (Nanosyn-293HEK, WT), 3 hours at 25° C.; all examples except 50, 51, 62 and 63; read-out: BTK IC50
T1 construct: purchased Nanosyn, Santa Clara, Calif; host or cells: 293HEK

[1] = target: T2, Phosphorylation of Y223 of BTK (Homo sapiens, UniProt Q06187); assay: Whole blood compound screening, phosphorylation of Y223 site of BTK (MSD assay); format: cell-based; conditions: healthy human whole blood, 2 hours at 37° C., 3 separate donors; read-out: WB BTK-pY223 EC50
T2 construct: host or cells: healthy human whole blood, 3 donors
Protocol: Healthy human whole blood (WB) was collected from […]™ Technologies or […]® in sodium heparinized tubes. Whole blood was stored at ambient temperature to avoid coagulation. Each compound was tested in 3 separate donors. Compound stock solutions (10 mM) were used to generate dose titration (8 concentrations, starting concentration 10 μM, 1:4 dilution) in appropriate volume of dimethyl sulfoxide (0.2%). Whole blood was incubated with compounds in 96-well plates for 2 hours in tissue culture incubators at 37° C. under a 5% CO2 atmosphere. The whole blood was lysed in equal volume of lysis buffer (Cell Signaling Technology®, Danvers, Mass.) containing complete protease inhibitor tablet, PhosSTOP™ tablet, sodium orthovanadate and sodium fluoride and phenylmethanesulfonyl fluoride solution. The lysed whole blood was then frozen at −80° C. for overnight.
Phosphorylation of Y223 of BTK was measured using an MSD assay (Meso Scale Diagnostics, LLC, Rockville, Md.). The thawed lysed whole blood was incubated with the capturing antibody rabbit anti-human BTK (D3H5) (Cell Signaling Technology, Danvers, Mass.) at 4° C. overnight. After washing out the unbound samples, the detection antibody biotinylated rabbit anti-pY223-BTK(D9T6H) (Cell Signaling Technology®, Danvers, Mass.) was added to the plates. After washing out the unbound antibodies, SULFO-TAG Streptavidin (Meso Scale Diagnostics, LLC, Rockville, Md.) was used for detection on Meso Sector S600 (Meso Scale Diagnostics, LLC, Rockville, Md.).
The EC50 values were determined using software from Dotmatics. The activity of exemplary compounds is illustrated below.

T1 sequence (Q06187 whole entry): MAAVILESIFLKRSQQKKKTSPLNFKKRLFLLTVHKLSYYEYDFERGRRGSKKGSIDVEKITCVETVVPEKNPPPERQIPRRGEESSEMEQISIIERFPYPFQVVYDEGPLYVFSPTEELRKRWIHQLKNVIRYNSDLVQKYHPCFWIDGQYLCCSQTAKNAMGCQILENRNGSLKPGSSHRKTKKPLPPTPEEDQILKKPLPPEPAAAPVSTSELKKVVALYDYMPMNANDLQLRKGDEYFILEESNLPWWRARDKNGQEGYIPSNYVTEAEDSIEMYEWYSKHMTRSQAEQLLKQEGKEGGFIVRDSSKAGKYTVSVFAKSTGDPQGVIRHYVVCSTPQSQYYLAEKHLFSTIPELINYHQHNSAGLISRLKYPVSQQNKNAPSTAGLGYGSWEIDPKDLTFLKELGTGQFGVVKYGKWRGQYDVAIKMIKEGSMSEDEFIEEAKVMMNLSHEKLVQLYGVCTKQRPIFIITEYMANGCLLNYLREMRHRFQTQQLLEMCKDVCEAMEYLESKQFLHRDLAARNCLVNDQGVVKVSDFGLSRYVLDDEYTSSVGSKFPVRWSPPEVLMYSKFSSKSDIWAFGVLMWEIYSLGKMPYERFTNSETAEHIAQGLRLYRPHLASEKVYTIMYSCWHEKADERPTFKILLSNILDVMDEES
T2 sequence (Q06187 whole entry): as above

| Structure (SMILES) | IC50 (BTK) | EC50 [1] |
| --- | --- | --- |
| C=CC(=O)N1C2CC1CN([C@H]1CCNc3c1nn(-c1ccc(Oc4ccccc4)cc1)c3C(N)=O)C2 [Example 72, (7S)-2-(4-phenoxyphenyl)-7-[6-(prop-2-enoyl)-3,6-diazabicyclo[3.1.1]heptan-3-yl]-4,5,6,7-tetrahydro-2H-pyrazolo[4,3-b]pyridine-3-carboxamide] | 0.00784 µM | 0.0217 µM |
| C=CC(=O)N1CCN([C@@H]2CCNc3c2nn(-c2ccc(Oc4ccccc4)cc2)c3C(N)=O)CC12CC2 [Example 82, (7R)-2-(4-phenoxyphenyl)-7-[4-(prop-2-enoyl)-4,7-diazaspiro[2.5]octan-7-yl]-4,5,6,7-tetrahydro-2H-pyrazolo[4,3-b]pyridine-3-carboxamide] | 0.000515 µM | 0.0441 µM |
| C=CC(=O)N1CCN([C@@H]2CCNc3c2nn(-c2ccc(Oc4ccc(C)cc4)cc2)c3C(N)=O)CC1 [Example 92, (7R)-2-[4-(4-methylphenoxy)phenyl]-7-[4-(prop-2-enoyl)piperazin-1-yl]-4,5,6,7-tetrahydro-2H-pyrazolo[4,3-b]pyridine-3-carboxamide] | 0.00242 µM | 0.608 µM |
| C=CC(=O)N1C[C@@H]2CN(C3CCNc4c3nn(-c3ccc(Oc5ccccc5)cc3)c4C(N)=O)C[C@@H]2C1 (mixture of isomers) [Example 66, 2-(4-phenoxyphenyl)-7-[rac-(3aR,6aS)-5-(prop-2-enoyl)hexahydropyrrolo[3,4-c]pyrrol-2(1H)-yl]-4,5,6,7-tetrahydro-2H-pyrazolo[4,3-b]pyridine-3-carboxamide] | 0.0657 µM | 1.82 µM |
| C=CC(=O)N1CCN([C@@H]2CCNc3c2nn(-c2ccc(Oc4ccc(F)cc4F)cc2)c3C(N)=O)CC1 [Example 70, (7R)-2-[4-(2,4-difluorophenoxy)phenyl]-7-[4-(prop-2-enoyl)piperazin-1-yl]-4,5,6,7-tetrahydro-2H-pyrazolo[4,3-b]pyridine-3-carboxamide] | 0.00709 µM | 0.239 µM |
| C=CC(=O)N1CCN(C2CCNc3c2nn(-c2ccc(Oc4ccccc4)cc2)c3C(N)=O)CC12CC2 (centres unmarked) [Example 53, 2-(4-phenoxyphenyl)-7-[4-(prop-2-enoyl)-4,7-diazaspiro[2.5]octan-7-yl]-4,5,6,7-tetrahydro-2H-pyrazolo[4,3-b]pyridine-3-carboxamide] | 0.0012 µM | 0.0718 µM |
| C=CC(=O)N1CCN([C@@H]2CCNc3c2nn(-c2ccc(Oc4ccc(O)cc4)cc2)c3C(N)=O)CC1 [Example 44, (7R)-2-[4-(4-hydroxyphenoxy)phenyl]-7-[4-(prop-2-enoyl)piperazin-1-yl]-4,5,6,7-tetrahydro-2H-pyrazolo[4,3-b]pyridine-3-carboxamide] | 0.0154 µM | 0.158 µM |
| C=CC(=O)N1CCN(C2CCNc3c2nn(-c2ccc(Oc4ccccc4)cc2)c3C(N)=O)C[C@@H]1C (stereo partly drawn) [Example 43, 7-[(3S)-3-methyl-4-(prop-2-enoyl)piperazin-1-yl]-2-(4-phenoxyphenyl)-4,5,6,7-tetrahydro-2H-pyrazolo[4,3-b]pyridine-3-carboxamide] | 0.00117 µM | 0.0625 µM |
| C=CC(=O)N1CCN(C2CCNc3c2nn(-c2ccc(Oc4ccccc4C(F)(F)F)cc2)c3C(N)=O)CC1 (centres unmarked) [Example 54, 7-[4-(prop-2-enoyl)piperazin-1-yl]-2-{4-[2-(trifluoromethyl)phenoxy]phenyl}-4,5,6,7-tetrahydro-2H-pyrazolo[4,3-b]pyridine-3-carboxamide] | 0.00119 µM | 0.0767 µM |
| C=CC(=O)N1CCN([C@@H]2CCNc3c2nn(-c2ccc(Oc4ccccc4C4CC4)cc2)c3C(N)=O)CC1 [Example 68, (7R)-2-[4-(2-cyclopropylphenoxy)phenyl]-7-[4-(prop-2-enoyl)piperazin-1-yl]-4,5,6,7-tetrahydro-2H-pyrazolo[4,3-b]pyridine-3-carboxamide] | 0.00318 µM | 0.0962 µM |
| C=CC(=O)N1CC(N2CCNc3c2nn(-c2ccc(Oc4ccc(F)cc4F)cc2)c3C(N)=O)C1 [Example 81, 2-[4-(2,4-difluorophenoxy)phenyl]-7-[1-(prop-2-enoyl)azetidin-3-yl]-4,5,6,7-tetrahydro-2H-pyrazolo[3,4-b]pyrazine-3-carboxamide] | 0.00524 µM | 0.0751 µM |
| C=CC(=O)N1CCN([C@@H]2CCNc3c2nn(-c2ccc(Oc4cccc(F)c4)cc2)c3C(N)=O)CC1 [Example 67, (7R)-2-[4-(3-fluorophenoxy)phenyl]-7-[4-(prop-2-enoyl)piperazin-1-yl]-4,5,6,7-tetrahydro-2H-pyrazolo[4,3-b]pyridine-3-carboxamide] | 0.000737 µM | 0.0188 µM |
| C=CC(=O)N1CCN([C@@H]2CCNc3c2nn(-c2ccc(Oc4ccccc4OC(F)(F)F)cc2)c3C(N)=O)CC1 [Example 90, (7R)-7-[4-(prop-2-enoyl)piperazin-1-yl]-2-{4-[2-(trifluoromethoxy)phenoxy]phenyl}-4,5,6,7-tetrahydro-2H-pyrazolo[4,3-b]pyridine-3-carboxamide] | 0.00129 µM | 0.933 µM |
| C=CC(=O)N1CCN([C@@H]2CCNc3c2nn(-c2ccc(Oc4cccc(C)c4)cc2)c3C(N)=O)CC1 [Example 88, (7R)-2-[4-(3-methylphenoxy)phenyl]-7-[4-(prop-2-enoyl)piperazin-1-yl]-4,5,6,7-tetrahydro-2H-pyrazolo[4,3-b]pyridine-3-carboxamide] | 0.000797 µM | 0.225 µM |
| C=CC(=O)N1CCC(N2CCNc3c2nn(-c2ccc(Oc4ccccc4)cc2)c3C(N)=O)CC1 [Example 16, 2-(4-phenoxyphenyl)-7-[1-(prop-2-enoyl)piperidin-4-yl]-4,5,6,7-tetrahydro-2H-pyrazolo[3,4-b]pyrazine-3-carboxamide] | 0.000592 µM | 0.0183 µM |
| C=CC(=O)N1CCN([C@@H]2CCNc3c2nn(-c2ccc(Oc4cccc(OC(F)(F)F)c4)cc2)c3C(N)=O)CC1 [Example 89, (7R)-7-[4-(prop-2-enoyl)piperazin-1-yl]-2-{4-[3-(trifluoromethoxy)phenoxy]phenyl}-4,5,6,7-tetrahydro-2H-pyrazolo[4,3-b]pyridine-3-carboxamide] | 0.00175 µM | 0.525 µM |
| C=CC(=O)N1CCC([C@H]2CCNc3c2nn(-c2ccc(Oc4ccc(F)cc4F)cc2)c3C(N)=O)CC1 [Example 30, (7R)-2-[4-(2,4-difluorophenoxy)phenyl]-7-[1-(prop-2-enoyl)piperidin-4-yl]-4,5,6,7-tetrahydro-2H-pyrazolo[4,3-b]pyridine-3-carboxamide] | 0.00105 µM | 0.0453 µM |
| C=CC(=O)N1CCN([C@@H]2CCNc3c2nn(-c2ccc(Oc4ccccc4C)cc2)c3C(N)=O)CC1 [Example 86, (7R)-2-[4-(2-methylphenoxy)phenyl]-7-[4-(prop-2-enoyl)piperazin-1-yl]-4,5,6,7-tetrahydro-2H-pyrazolo[4,3-b]pyridine-3-carboxamide] | 0.000706 µM | 0.315 µM |
| C=CC(=O)N1CCN([C@@H]2CCNc3c2nn(-c2ccc(Oc4ccc(OC)cc4)cc2)c3C(N)=O)CC1 [Example 87, (7R)-2-[4-(4-methoxyphenoxy)phenyl]-7-[4-(prop-2-enoyl)piperazin-1-yl]-4,5,6,7-tetrahydro-2H-pyrazolo[4,3-b]pyridine-3-carboxamide] | 0.00332 µM | 0.162 µM |
